In the NIST ThermoML archive (doi:10.1021/acs.jced.5b00542):
Numbers after ± are expanded uncertainties.

Conditions: 298.15 K; 101.33 kPa; Liquid; Vibrating tube method

| SMILES | mass density [kg/m3] |
| --- | --- |
| c1ccccc1 [benzene] | 874 ± 20 |
| C1CCCCC1 [cyclohexane] | 779 ± 20 |
| CCCCCC [hexane] | 659 ± 20 |
| CC(C)O [propan-2-ol] | 798 ± 20 |
